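Cells were grown in 96-well plates and exposed to each compound for 48 hours at five concentrations; endpoints were interpolated linearly between bracketing concentrations, or set to the highest concentration if not reached. GI50 is the concentration that inhibits growth by half.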 Active and inactive are the calls of the source. Cut-off read from the data, not from the text of the source: active = GI50 up to about 1.1 µM and inactive = higher.
Assays:
Assay in all cases: NCI anticancer screen, dose series, 48 h
SR = tested on: SR
MDA-MB-231 = tested on: MDA-MB-231
MCF7 = tested on: MCF7
A549 = tested on: A549
UACC-257 = tested on: UACC-257
HT-29 = tested on: HT-29
NCI-H460 = tested on: NCI-H460
SNB-19 = tested on: SNB-19
EKVX = tested on: EKVX
SF-268 = tested on: SF-268
MDA-N = tested on: MDA-N
HOP-62 = tested on: HOP-62
HCT-116 = tested on: HCT-116
SK-MEL-5 = tested on: SK-MEL-5
RXF 393 = tested on: RXF 393
SF-539 = tested on: SF-539
ACHN = tested on: ACHN
SK-MEL-2 = tested on: SK-MEL-2
CCRF-CEM = tested on: CCRF-CEM
SK-MEL-28 = tested on: SK-MEL-28

Measured: GI50

Clc1ccccc1/C=C/c1ccnc2ccccc12
inactive: SR 17 µM | MDA-MB-231 22.9 µM | MCF7 11.6 µM | A549 16.2 µM | UACC-257 15.1 µM | HT-29 16 µM | NCI-H460 16.2 µM | SNB-19 16.8 µM | EKVX 5.48 µM | SF-268 18.9 µM | MDA-N 14.6 µM | HOP-62 16.9 µM | HCT-116 15.7 µM | SK-MEL-5 15.1 µM | RXF 393 16.5 µM | SF-539 18.4 µM | ACHN 16.5 µM | SK-MEL-2 16.6 µM | CCRF-CEM 20.5 µM | SK-MEL-28 19.6 µM

C(#CP(c1ccccc1)c1ccccc1)P(C#CP(c1ccccc1)c1ccccc1)c1ccccc1
inactive: SR > 100 µM | MDA-MB-231 > 100 µM | MCF7 > 100 µM | A549 > 100 µM | UACC-257 > 100 µM | HT-29 > 100 µM | NCI-H460 > 100 µM | SNB-19 > 100 µM | EKVX > 100 µM | SF-268 > 100 µM | MDA-N > 100 µM | HOP-62 > 100 µM | HCT-116 > 100 µM | SK-MEL-5 > 100 µM | RXF 393 > 100 µM | SF-539 > 100 µM | ACHN > 100 µM | SK-MEL-2 > 100 µM | CCRF-CEM > 100 µM | SK-MEL-28 > 100 µM

O=C(O)c1ccc(NNC(=O)c2cccc3c(=O)c4ccccc4[nH]c23)cc1
inactive: SR 93.5 µM | MDA-MB-231 75.3 µM | MCF7 > 100 µM | A549 > 100 µM | UACC-257 > 100 µM | HT-29 > 100 µM | NCI-H460 92.9 µM | SNB-19 > 100 µM | EKVX 57.9 µM | SF-268 > 100 µM | MDA-N > 100 µM | HOP-62 > 100 µM | HCT-116 > 100 µM | SK-MEL-5 55.5 µM | RXF 393 > 100 µM | SF-539 > 100 µM | ACHN 74.1 µM | SK-MEL-2 > 100 µM | CCRF-CEM 66.2 µM | SK-MEL-28 > 100 µM

CC1C(=O)O[B-]2(c3ccccc3)Oc3ccccc3C=[N+]12 (stereo not given)
inactive: SR > 100 µM | MDA-MB-231 > 100 µM | MCF7 61.2 µM | A549 > 100 µM | UACC-257 > 100 µM | HT-29 > 100 µM | NCI-H460 > 100 µM | SNB-19 > 100 µM | EKVX > 100 µM | SF-268 > 100 µM | MDA-N > 100 µM | HOP-62 > 100 µM | HCT-116 > 100 µM | SK-MEL-5 > 100 µM | RXF 393 > 100 µM | SF-539 > 100 µM | ACHN > 100 µM | SK-MEL-2 > 100 µM | CCRF-CEM > 100 µM | SK-MEL-28 > 100 µM
